Measurements: PubChem BioAssay AID1963428 (Molecular Pharmacology Branch, DTP, NCI, 2024)

System: 171881-019-R-J1-PDC complex spheroid growth, % test/control
Assay: Anticancer human tumor 171881-019-R-J1-PDC patient-derived invasive breast carcinoma cell line growth inhibition [Asc]
Conditions: for IC50: curve of first compound; for viability, T/C: stronger effect = lower value
In short: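 Stromal components (HUVEC and hMSC) are co-assembled with the cancer cells into multicellular spheroids. Drugs are then added singly or paired, at concentrations falling by half-log increments from a clinically achievable maximum, capped at 10 microM without known Cmax.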

[1] = second compound 0.1 µM, first compound 0.00316 µM
[2] = second compound 0.1 µM, first compound 0.01 µM
[3] = second compound 0.1 µM, first compound 0.0316 µM
[4] = second compound 0.1 µM, first compound 0.1 µM
[5] = second compound 0.1 µM, first compound 0.316 µM
[6] = second compound 0.1 µM, first compound 1 µM
[7] = second compound 0.316 µM, first compound 0.00316 µM
[8] = second compound 0.316 µM, first compound 0.01 µM
[9] = second compound 0.316 µM, first compound 0.0316 µM
[10] = second compound 0.316 µM, first compound 0.1 µM
[11] = second compound 0.316 µM, first compound 0.316 µM
[12] = second compound 0.316 µM, first compound 1 µM
[13] = second compound 1 µM, first compound 0.00316 µM
[14] = second compound 1 µM, first compound 0.01 µM
[15] = second compound 1 µM, first compound 0.0316 µM
[16] = second compound 1 µM, first compound 0.1 µM
[17] = second compound 1 µM, first compound 0.316 µM
[18] = second compound 1 µM, first compound 1 µM
[19] = second compound 3.16 µM, first compound 0.00316 µM
[20] = second compound 3.16 µM, first compound 0.01 µM
[21] = second compound 3.16 µM, first compound 0.0316 µM
[22] = second compound 3.16 µM, first compound 0.1 µM
[23] = second compound 3.16 µM, first compound 0.316 µM
[24] = second compound 3.16 µM, first compound 1 µM
[25] = second compound 10 µM, first compound 0.00316 µM
[26] = second compound 10 µM, first compound 0.01 µM
[27] = second compound 10 µM, first compound 0.0316 µM
[28] = second compound 10 µM, first compound 0.1 µM
[29] = second compound 10 µM, first compound 0.316 µM
[30] = second compound 10 µM, first compound 1 µM
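For viability, T/C in this document: spheroids exposed to compounds for 7 days.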

Compound `CCN1CCN(Cc2ccc(Nc3ncc(F)c(-c4cc(F)c5nc(C)n(C(C)C)c5c4)n3)nc2)CC1` + Cc1c(S(C)(=O)=O)c(-c2cc(F)cc(N3CCN(c4ccc(NS(=O)(=O)c5ccc(NC(CCN6CCC(C(=O)OCCCP(=O)(O)O)CC6)CSc6ccccc6)c(S(=O)(=O)C(F)(F)F)c5)cc4)CC3)c2)c(-c2ccc(Cl)cc2)n1C(C)C has an IC50 (second compound 0.1 µM) greater than 1000 nM, an IC50 (second compound 0.316 µM) greater than 1000 nM and an IC50 (second compound 1 µM) greater than 1000 nM. It also gave an IC50 (second compound 3.16 µM) greater than 1000 nM, an IC50 (second compound 10 µM) greater than 1000 nM and a viability, T/C [1] of 105%. For the same compound, the viability, T/C [2] was 118%, the viability, T/C [3] was 119% and the viability, T/C [4] was 111%. The viability, T/C [5] was 118%, the viability, T/C [6] was 146% and the viability, T/C [7] was 142%. It also gave a viability, T/C [8] of 145%, a viability, T/C [9] of 149% and a viability, T/C [10] of 139%. For the same compound, the viability, T/C [11] was 178%, the viability, T/C [12] was 188% and the viability, T/C [13] was 125%. The viability, T/C [14] was 149%, the viability, T/C [15] was 157% and the viability, T/C [16] was 172%. For the same compound, the viability, T/C [17] was 188%, the viability, T/C [18] was 200% and the viability, T/C [19] was 191%. For the same compound, the viability, T/C [20] was 190%, the viability, T/C [21] was 189% and the viability, T/C [22] was 184%. For the same compound, the viability, T/C [23] was 188%, the viability, T/C [24] was 185% and the viability, T/C [25] was 199%. For the same compound, the viability, T/C [26] was 215%, the viability, T/C [27] was 213% and the viability, T/C [28] was 192%. It also gave a viability, T/C [29] of 187% and a viability, T/C [30] of 166%.

`Cn1ncnc1[C@H]1c2n[nH]c(=O)c3cc(F)cc(c23)N[C@@H]1c1ccc(F)cc1` + Cc1c(S(C)(=O)=O)c(-c2cc(F)cc(N3CCN(c4ccc(NS(=O)(=O)c5ccc(NC(CCN6CCC(C(=O)OCCCP(=O)(O)O)CC6)CSc6ccccc6)c(S(=O)(=O)C(F)(F)F)c5)cc4)CC3)c2)c(-c2ccc(Cl)cc2)n1C(C)C gave an IC50 (second compound 0.1 µM) greater than 100 nM, an IC50 (second compound 0.316 µM) greater than 100 nM and an IC50 (second compound 1 µM) greater than 100 nM. For the same compound, the IC50 (second compound 3.16 µM) was greater than 100 nM, the IC50 (second compound 10 µM) was greater than 100 nM and the viability, T/C (second compound 0.1 µM, first compound 0.000316 µM) was 86.8%. The viability, T/C (second compound 0.1 µM, first compound 0.001 µM) was 108%, the viability, T/C [1] was 103% and the viability, T/C [2] was 115%. For the same compound, the viability, T/C [3] was 108%, the viability, T/C [4] was 100% and the viability, T/C (second compound 0.316 µM, first compound 0.000316 µM) was 111%. It also gave a viability, T/C (second compound 0.316 µM, first compound 0.001 µM) of 130%, a viability, T/C [7] of 107% and a viability, T/C [8] of 120%. It also gave a viability, T/C [9] of 129%, a viability, T/C [10] of 129% and a viability, T/C (second compound 1 µM, first compound 0.000316 µM) of 136%. The viability, T/C (second compound 1 µM, first compound 0.001 µM) was 145%, the viability, T/C [13] was 123% and the viability, T/C [14] was 159%. For the same compound, the viability, T/C [15] was 143%, the viability, T/C [16] was 192% and the viability, T/C (second compound 3.16 µM, first compound 0.000316 µM) was 168%. For the same compound, the viability, T/C (second compound 3.16 µM, first compound 0.001 µM) was 155%, the viability, T/C [19] was 186% and the viability, T/C [20] was 178%. For the same compound, the viability, T/C [21] was 192%, the viability, T/C [22] was 173% and the viability, T/C (second compound 10 µM, first compound 0.000316 µM) was 210%. It also gave a viability, T/C (second compound 10 µM, first compound 0.001 µM) of 203%, a viability, T/C [25] of 214% and a viability, T/C [26] of 208%. For the same compound, the viability, T/C [27] was 192% and the viability, T/C [28] was 181%.

Work on `O=C(c1cc(Cc2n[nH]c(=O)c3ccccc23)ccc1F)N1CCN(C(=O)C2CC2)CC1` + Cc1c(S(C)(=O)=O)c(-c2cc(F)cc(N3CCN(c4ccc(NS(=O)(=O)c5ccc(NC(CCN6CCC(C(=O)OCCCP(=O)(O)O)CC6)CSc6ccccc6)c(S(=O)(=O)C(F)(F)F)c5)cc4)CC3)c2)c(-c2ccc(Cl)cc2)n1C(C)C yielded an IC50 (second compound 0.1 µM) greater than 10000 nM, an IC50 (second compound 0.316 µM) greater than 10000 nM and an IC50 (second compound 1 µM) greater than 10000 nM. For the same compound, the IC50 (second compound 3.16 µM) was greater than 10000 nM, the IC50 (second compound 10 µM) was greater than 10000 nM and the viability, T/C [3] was 106%. For the same compound, the viability, T/C [4] was 102%, the viability, T/C [5] was 103% and the viability, T/C [6] was 124%. For the same compound, the viability, T/C (second compound 0.1 µM, first compound 3.16 µM) was 102%, the viability, T/C (second compound 0.1 µM, first compound 10 µM) was 111% and the viability, T/C [9] was 136%. For the same compound, the viability, T/C [10] was 125%, the viability, T/C [11] was 134% and the viability, T/C [12] was 125%. It also gave a viability, T/C (second compound 0.316 µM, first compound 3.16 µM) of 127%, a viability, T/C (second compound 0.316 µM, first compound 10 µM) of 134% and a viability, T/C [15] of 132%. For the same compound, the viability, T/C [16] was 136%, the viability, T/C [17] was 143% and the viability, T/C [18] was 168%. It also gave a viability, T/C (second compound 1 µM, first compound 3.16 µM) of 169%, a viability, T/C (second compound 1 µM, first compound 10 µM) of 180% and a viability, T/C [21] of 158%. For the same compound, the viability, T/C [22] was 200%, the viability, T/C [23] was 193% and the viability, T/C [24] was 164%. It also gave a viability, T/C (second compound 3.16 µM, first compound 3.16 µM) of 197%, a viability, T/C (second compound 3.16 µM, first compound 10 µM) of 184% and a viability, T/C [27] of 212%. The viability, T/C [28] was 208%, the viability, T/C [29] was 228% and the viability, T/C [30] was 227%. For the same compound, the viability, T/C (second compound 10 µM, first compound 3.16 µM) was 209% and the viability, T/C (second compound 10 µM, first compound 10 µM) was 175%.

In the case of `O=C(c1ccc(F)c(F)c1Nc1ccc(I)cc1F)N1CC(O)([C@@H]2CCCCN2)C1` + Cc1c(S(C)(=O)=O)c(-c2cc(F)cc(N3CCN(c4ccc(NS(=O)(=O)c5ccc(NC(CCN6CCC(C(=O)OCCCP(=O)(O)O)CC6)CSc6ccccc6)c(S(=O)(=O)C(F)(F)F)c5)cc4)CC3)c2)c(-c2ccc(Cl)cc2)n1C(C)C, the IC50 (second compound 0.1 µM) is reported as 207 nM, the IC50 (second compound 0.316 µM) is reported as 164 nM and the IC50 (second compound 1 µM) is reported as 125 nM. For the same compound, the IC50 (second compound 3.16 µM) was 87.3 nM, the IC50 (second compound 10 µM) was 106 nM and the viability, T/C [1] was 98.9%. The viability, T/C [2] was 110%, the viability, T/C [3] was 222% and the viability, T/C [4] was 97.6%. For the same compound, the viability, T/C [5] was 25.8%, the viability, T/C [6] was 18.8% and the viability, T/C [7] was 109%. For the same compound, the viability, T/C [8] was 194%, the viability, T/C [9] was 186% and the viability, T/C [10] was 75.9%. The viability, T/C [11] was 18.7%, the viability, T/C [12] was 12.3% and the viability, T/C [13] was 136%. The viability, T/C [14] was 193%, the viability, T/C [15] was 158% and the viability, T/C [16] was 59.2%. The viability, T/C [17] was 13.7%, the viability, T/C [18] was 6.11% and the viability, T/C [19] was 156%. It also gave a viability, T/C [20] of 182%, a viability, T/C [21] of 115% and a viability, T/C [22] of 44.8%. It also gave a viability, T/C [23] of 8.8%, a viability, T/C [24] of 3.61% and a viability, T/C [25] of 175%. For the same compound, the viability, T/C [26] was 174%, the viability, T/C [27] was 118% and the viability, T/C [28] was 54.9%. It also gave a viability, T/C [29] of 12% and a viability, T/C [30] of 3.48%.
